{
  "source": "ChEMBL document CHEMBL1201862",
  "about": "“PubChem BioAssay data set” (2004)",
  "key": {"[1]": {"biological_target": "Luciferin 4-monooxygenase (Photinus pyralis, UniProt P08659)", "sequence (P08659 whole entry)": "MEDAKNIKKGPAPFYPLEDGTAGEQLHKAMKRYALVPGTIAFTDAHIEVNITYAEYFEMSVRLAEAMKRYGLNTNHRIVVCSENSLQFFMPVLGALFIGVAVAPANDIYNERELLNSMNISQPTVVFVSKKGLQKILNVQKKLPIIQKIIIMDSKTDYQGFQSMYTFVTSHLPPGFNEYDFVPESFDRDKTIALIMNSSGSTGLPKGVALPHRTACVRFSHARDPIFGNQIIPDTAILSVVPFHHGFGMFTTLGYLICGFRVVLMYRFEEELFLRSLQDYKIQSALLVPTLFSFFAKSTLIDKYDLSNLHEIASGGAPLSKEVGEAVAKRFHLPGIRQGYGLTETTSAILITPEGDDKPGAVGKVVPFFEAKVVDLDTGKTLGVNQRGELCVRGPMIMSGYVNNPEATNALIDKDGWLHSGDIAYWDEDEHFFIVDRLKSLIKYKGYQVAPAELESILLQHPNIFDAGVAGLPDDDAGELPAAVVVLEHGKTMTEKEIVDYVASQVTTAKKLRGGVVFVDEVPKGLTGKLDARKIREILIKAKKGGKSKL", "assay": "Counter Screen for Luciferase-based Assay Positives. [Related pubchem assays: 620, 618, 411 ]"}, "[2]": {"test_system": "Jurkat", "assay": "blockers of NF-kB activation in T cells – Jurkat, luciferase reporter, luminescence, B- and T-cell, dose response (AID 489004);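 further: NF-kB luciferase reporter Jurkat cells stimulated with PMA plus ionomycin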", "type": "functional, cell-based", "details": "Homo sapiens"}, "[3]": {"assay": "HEK-293T viability loss, compound-treated – cell-based, uHTS hits, cytotoxicity control for B/T-cell NF-kB inhibitor project, dose response (AID 489019);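 further: IC50 reflects cytotoxicity as loss of cell viability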", "type": "functional"}, "[4]": {"biological_target": "Homeodomain-interacting protein kinase 4 (Homo sapiens, UniProt Q8NE63)", "sequence (Q8NE63 whole entry)": "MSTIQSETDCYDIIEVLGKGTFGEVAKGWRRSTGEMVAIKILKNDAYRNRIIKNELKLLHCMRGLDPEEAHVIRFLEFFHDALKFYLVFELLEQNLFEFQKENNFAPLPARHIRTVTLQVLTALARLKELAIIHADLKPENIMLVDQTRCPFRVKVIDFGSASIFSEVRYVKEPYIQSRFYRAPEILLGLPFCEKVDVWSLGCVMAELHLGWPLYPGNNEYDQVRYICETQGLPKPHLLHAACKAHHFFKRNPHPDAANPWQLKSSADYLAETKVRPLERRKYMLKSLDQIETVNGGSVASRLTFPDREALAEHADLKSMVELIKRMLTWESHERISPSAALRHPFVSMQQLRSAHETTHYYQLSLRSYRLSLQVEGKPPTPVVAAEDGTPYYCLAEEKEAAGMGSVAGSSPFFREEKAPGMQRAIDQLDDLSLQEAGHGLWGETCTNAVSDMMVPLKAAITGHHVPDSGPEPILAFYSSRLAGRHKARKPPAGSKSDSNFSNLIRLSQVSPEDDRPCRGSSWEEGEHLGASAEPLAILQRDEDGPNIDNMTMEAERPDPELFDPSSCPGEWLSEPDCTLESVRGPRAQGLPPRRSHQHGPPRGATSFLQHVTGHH", "type": "functional"}, "[5]": {"biological_target": "Serine/threonine-protein kinase N2 (Homo sapiens, UniProt Q16513)", "sequence (Q16513 whole entry)": "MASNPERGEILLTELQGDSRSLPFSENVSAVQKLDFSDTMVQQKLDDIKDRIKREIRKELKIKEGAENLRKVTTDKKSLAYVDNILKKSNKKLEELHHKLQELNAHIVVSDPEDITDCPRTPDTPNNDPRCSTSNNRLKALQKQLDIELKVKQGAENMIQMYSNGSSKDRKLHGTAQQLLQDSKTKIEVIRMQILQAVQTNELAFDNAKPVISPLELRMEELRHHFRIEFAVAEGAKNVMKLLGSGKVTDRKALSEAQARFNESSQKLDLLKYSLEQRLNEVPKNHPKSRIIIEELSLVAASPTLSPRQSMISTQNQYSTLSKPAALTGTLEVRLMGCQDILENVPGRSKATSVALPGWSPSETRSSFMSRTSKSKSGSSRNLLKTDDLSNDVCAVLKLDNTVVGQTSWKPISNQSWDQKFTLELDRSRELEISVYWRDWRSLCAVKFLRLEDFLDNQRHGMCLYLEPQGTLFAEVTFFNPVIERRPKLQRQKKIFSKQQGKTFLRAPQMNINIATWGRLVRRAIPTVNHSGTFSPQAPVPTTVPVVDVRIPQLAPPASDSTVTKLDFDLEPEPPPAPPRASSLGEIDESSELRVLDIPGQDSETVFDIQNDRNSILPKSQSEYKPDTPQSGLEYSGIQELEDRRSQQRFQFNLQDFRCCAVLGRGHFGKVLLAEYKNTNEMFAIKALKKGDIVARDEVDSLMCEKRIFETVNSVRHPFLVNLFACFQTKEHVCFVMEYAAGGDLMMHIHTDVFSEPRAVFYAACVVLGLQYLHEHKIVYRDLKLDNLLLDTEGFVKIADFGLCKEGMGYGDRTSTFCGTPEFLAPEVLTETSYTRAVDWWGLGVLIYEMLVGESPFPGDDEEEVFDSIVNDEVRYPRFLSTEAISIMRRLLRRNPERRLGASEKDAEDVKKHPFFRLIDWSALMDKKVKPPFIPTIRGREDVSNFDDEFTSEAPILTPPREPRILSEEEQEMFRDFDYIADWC", "type": "functional"}, "[6]": {"biological_target": "Tyrosine-protein kinase receptor UFO (Homo sapiens, UniProt P30530)", "type": "functional"}, "[7]": {"biological_target": "Mitogen-activated protein kinase 9 (Homo sapiens, UniProt P45984)", "sequence (P45984 whole entry)": "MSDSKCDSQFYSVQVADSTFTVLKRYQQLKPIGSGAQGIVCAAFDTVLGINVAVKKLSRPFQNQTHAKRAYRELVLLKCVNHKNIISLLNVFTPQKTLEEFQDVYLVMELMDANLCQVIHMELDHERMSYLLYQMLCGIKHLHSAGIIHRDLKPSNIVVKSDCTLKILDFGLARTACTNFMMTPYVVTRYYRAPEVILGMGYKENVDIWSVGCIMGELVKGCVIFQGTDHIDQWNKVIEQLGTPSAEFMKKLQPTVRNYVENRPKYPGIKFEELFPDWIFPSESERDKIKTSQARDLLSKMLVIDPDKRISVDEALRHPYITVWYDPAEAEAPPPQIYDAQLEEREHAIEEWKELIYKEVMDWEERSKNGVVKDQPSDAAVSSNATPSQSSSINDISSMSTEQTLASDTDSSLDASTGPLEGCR", "type": "functional"}, "[8]": {"biological_target": "Proto-oncogene tyrosine-protein kinase Src (Homo sapiens, UniProt P12931)", "sequence (P12931 2-536 limits assumed)": "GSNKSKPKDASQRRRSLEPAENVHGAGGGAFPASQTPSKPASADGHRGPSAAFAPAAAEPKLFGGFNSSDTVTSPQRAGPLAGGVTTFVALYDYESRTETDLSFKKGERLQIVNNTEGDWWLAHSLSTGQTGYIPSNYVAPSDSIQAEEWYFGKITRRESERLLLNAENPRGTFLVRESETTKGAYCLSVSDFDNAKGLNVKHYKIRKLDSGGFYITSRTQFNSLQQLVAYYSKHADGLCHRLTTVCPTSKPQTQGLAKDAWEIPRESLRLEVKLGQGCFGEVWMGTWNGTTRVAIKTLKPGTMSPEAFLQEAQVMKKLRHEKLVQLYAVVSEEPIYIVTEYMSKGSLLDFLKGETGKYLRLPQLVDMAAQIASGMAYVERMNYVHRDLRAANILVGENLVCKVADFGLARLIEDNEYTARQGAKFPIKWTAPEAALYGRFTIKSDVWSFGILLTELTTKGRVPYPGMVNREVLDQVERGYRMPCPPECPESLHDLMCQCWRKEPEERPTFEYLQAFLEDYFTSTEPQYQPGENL", "type": "functional"}, "[9]": {"biological_target": "cAMP-dependent protein kinase catalytic subunit alpha (Homo sapiens, UniProt P17612)", "type": "functional"}, "[10]": {"biological_target": "Serine/threonine-protein kinase PLK4 (Homo sapiens, UniProt O00444)", "sequence (O00444 whole entry)": "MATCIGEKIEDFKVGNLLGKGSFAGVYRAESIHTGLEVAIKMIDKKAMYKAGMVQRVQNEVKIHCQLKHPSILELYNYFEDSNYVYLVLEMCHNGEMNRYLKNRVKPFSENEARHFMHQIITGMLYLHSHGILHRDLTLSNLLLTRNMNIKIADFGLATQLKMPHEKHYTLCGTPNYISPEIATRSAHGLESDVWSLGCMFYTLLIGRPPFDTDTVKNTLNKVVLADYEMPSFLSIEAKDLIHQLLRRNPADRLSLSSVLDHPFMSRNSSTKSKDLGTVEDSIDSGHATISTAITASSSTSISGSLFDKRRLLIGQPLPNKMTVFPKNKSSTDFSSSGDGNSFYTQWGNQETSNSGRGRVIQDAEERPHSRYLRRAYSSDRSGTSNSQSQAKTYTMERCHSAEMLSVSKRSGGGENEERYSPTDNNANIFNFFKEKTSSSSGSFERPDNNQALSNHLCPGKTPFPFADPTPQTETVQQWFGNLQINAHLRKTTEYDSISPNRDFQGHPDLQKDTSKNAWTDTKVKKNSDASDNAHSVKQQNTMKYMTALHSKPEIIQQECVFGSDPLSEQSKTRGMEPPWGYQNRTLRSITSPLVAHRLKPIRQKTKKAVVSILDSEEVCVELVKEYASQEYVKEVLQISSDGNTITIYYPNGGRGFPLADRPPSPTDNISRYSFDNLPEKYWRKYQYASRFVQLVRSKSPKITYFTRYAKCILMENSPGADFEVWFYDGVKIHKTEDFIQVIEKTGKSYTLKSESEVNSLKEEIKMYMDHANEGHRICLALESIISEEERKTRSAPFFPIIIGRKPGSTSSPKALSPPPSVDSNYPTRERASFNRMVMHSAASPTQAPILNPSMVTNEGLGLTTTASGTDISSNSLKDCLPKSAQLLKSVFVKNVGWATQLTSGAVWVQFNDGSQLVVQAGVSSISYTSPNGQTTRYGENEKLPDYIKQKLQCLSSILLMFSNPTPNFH", "type": "functional"}, "[11]": {"biological_target": "Cell division cycle 7-related protein kinase (Homo sapiens, UniProt O00311)", "sequence (O00311 whole entry)": "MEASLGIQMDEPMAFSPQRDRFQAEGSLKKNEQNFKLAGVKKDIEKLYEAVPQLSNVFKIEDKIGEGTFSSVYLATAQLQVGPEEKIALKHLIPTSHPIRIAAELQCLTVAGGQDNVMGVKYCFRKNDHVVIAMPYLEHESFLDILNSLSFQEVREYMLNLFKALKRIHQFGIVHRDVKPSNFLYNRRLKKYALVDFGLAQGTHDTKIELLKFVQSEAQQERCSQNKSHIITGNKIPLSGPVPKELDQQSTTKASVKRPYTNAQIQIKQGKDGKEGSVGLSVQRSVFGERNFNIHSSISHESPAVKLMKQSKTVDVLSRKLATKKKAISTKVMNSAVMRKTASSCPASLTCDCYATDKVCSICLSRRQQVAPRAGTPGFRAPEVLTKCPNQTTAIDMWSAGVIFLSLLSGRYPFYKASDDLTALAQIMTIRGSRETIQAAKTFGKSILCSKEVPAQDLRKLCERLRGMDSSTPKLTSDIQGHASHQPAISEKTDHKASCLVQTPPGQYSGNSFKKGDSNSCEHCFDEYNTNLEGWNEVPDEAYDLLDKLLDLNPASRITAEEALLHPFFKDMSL", "type": "functional"}, "[12]": {"biological_target": "Mitogen-activated protein kinase kinase kinase kinase 4 (Homo sapiens, UniProt O95819)", "type": "functional"}, "[13]": {"biological_target": "T1, Apoptotic protease-activating factor 1 (Homo sapiens, UniProt O14727)", "T1 sequence (O14727 whole entry)": "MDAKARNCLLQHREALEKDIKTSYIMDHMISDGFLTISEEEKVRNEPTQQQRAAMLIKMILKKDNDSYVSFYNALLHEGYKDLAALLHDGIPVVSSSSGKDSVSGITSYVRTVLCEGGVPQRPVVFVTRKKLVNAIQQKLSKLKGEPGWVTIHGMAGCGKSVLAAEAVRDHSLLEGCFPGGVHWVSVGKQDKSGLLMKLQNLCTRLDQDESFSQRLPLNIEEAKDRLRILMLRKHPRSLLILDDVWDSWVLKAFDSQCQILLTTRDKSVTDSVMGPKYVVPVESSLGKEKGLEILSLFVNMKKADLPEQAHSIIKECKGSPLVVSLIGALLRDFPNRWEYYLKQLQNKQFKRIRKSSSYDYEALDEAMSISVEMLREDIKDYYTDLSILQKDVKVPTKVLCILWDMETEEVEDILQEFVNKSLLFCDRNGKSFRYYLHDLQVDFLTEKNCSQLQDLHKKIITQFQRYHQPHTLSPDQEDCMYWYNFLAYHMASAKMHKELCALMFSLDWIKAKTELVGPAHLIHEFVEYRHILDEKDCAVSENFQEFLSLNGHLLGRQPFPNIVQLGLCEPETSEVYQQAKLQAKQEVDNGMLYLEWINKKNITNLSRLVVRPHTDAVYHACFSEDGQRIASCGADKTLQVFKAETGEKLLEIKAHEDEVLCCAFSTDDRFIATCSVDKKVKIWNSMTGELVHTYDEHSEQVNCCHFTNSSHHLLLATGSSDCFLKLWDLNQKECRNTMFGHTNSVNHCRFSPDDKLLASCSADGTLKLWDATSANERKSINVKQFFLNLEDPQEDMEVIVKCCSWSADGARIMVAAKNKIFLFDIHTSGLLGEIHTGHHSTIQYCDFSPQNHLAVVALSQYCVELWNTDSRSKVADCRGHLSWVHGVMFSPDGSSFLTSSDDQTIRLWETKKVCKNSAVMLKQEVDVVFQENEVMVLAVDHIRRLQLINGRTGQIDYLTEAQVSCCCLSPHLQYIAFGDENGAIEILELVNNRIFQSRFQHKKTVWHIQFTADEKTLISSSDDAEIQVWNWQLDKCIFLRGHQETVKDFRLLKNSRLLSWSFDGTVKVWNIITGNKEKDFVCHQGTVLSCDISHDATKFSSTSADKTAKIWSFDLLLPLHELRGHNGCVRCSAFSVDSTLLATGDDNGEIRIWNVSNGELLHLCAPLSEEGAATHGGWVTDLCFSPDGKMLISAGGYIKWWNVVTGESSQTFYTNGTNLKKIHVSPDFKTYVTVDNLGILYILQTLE", "type": "functional"}, "[14]": {"biological_target": "Paired box protein Pax-8 (Homo sapiens, UniProt Q06710)", "assay": "PAX8 transcriptional activity inhibition in RMG-I – RMG-I cells, luciferase, cherry-pick, dose response (AID 687027);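 further: luciferase reporter driven by Pax8 target thyroperoxidase promoter measured by SteadyGlo luminescence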", "type": "functional, cell-based"}, "[15]": {"biological_target": "T2, Protein RecA (Mycobacterium tuberculosis, UniProt P9WHJ3)", "T2 sequence (P9WHJ3 whole entry)": "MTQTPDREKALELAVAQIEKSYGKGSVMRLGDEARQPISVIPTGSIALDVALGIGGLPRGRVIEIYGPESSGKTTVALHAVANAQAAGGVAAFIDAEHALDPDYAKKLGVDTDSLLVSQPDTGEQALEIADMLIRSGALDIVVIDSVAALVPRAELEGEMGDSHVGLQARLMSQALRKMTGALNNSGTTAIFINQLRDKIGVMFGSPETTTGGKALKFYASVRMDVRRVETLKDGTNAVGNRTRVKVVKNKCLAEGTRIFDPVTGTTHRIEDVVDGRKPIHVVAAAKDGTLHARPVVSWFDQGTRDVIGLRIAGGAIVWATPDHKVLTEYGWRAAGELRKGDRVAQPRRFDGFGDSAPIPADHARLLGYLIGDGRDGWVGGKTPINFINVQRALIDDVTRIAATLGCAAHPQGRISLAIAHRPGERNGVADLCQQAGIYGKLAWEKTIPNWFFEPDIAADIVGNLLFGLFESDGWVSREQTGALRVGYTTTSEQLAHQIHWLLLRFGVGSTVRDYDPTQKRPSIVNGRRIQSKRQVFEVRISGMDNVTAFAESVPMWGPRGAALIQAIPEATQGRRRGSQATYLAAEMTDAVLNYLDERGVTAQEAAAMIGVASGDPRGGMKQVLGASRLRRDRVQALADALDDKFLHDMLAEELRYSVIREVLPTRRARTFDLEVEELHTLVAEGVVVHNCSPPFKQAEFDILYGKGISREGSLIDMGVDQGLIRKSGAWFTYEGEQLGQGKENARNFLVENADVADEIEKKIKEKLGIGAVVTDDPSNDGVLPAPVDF", "assay": "RecA Intein Measured in Biochemical System Using Plate Reader - 2047-02_Inhibitor_Dose_DryPowder_Activity. [Related pubchem assays (depositor defined):AID2223]", "design": "species or system Mycobacterium tuberculosis H37Rv"}, "[16]": {"assay": "fluconazole-exposed Candida albicans growth modulators – fluorescence, retest, confirmation (AID 2467)", "type": "functional, cell-based"}},
  "note": "Activity calls are given as the source filed them.",
  "data": [
    {"smiles": "CC(C)c1ccc(-c2nnn(CCC(=O)O)n2)cc1", "values": [
      {"measurement": "EC50", "setting": "[1]", "value": "4770 nM (active)"},
      {"measurement": "IC50", "setting": "[2]", "value": "< 160 nM (active)"},
      {"measurement": "IC50", "setting": "[3]", "value": "> 80000 nM (inactive)"}
    ]},
    {"smiles": "COc1cc2c(cc1Nc1nc(Nc3cccc(F)c3C(N)=O)c3cc[nH]c3n1)N(C(=O)CN(C)C)CC2", "values": [
      {"measurement": "Ki", "setting": "[4]", "value": "6310 nM (active)"},
      {"measurement": "Ki", "setting": "[5]", "value": "> 7940 nM (inactive)"},
      {"measurement": "Ki", "setting": "[6]", "value": "126 nM (active)"},
      {"measurement": "Ki", "setting": "[7]", "value": "631 nM (active)"},
      {"measurement": "Ki", "setting": "[8]", "value": "> 2000 nM (inactive)"},
      {"measurement": "Ki", "setting": "[9]", "value": "> 1260 nM (inactive)"},
      {"measurement": "Ki", "setting": "[10]", "value": "2000 nM (active)"},
      {"measurement": "Ki", "setting": "[11]", "value": "631 nM (active)"},
      {"measurement": "Ki", "setting": "[12]", "value": "> 5010 nM (inactive)"}
    ]},
    {"smiles": "CCn1nc(/C=C/c2ccccc2)nc2c(=O)n(C)c(=O)nc1-2", "values": [
      {"measurement": "IC50", "setting": "[13]", "value": "57.2 nM (active)"},
      {"measurement": "AC50", "setting": "[14]", "value": "4210 nM (active)"},
      {"measurement": "AC50", "setting": "[15]", "value": "60 nM (active)"},
      {"measurement": "EC50", "setting": "[16]", "value": "630 nM (active)"}
    ]}
  ]
}
